{"source": "patent US20250223626A1", "about": "“METHODS OF DIAGNOSING IBS-D AND SELECTION OF IBS-D TREATMENT” (priority 2022, published 2025)", "key": {"[1]": {"details": "rats on HFD, 10 days of treatment, compared to controls on HFD (P=0.07)", "experimental": "(§1) Therefore, HFD was used to assess the effects of persistent M. smithii elevation on stool consistency (stool wet weights). Sprague-Dawley rats were placed on a HFD (60% energy from fat [D12492; Research Diets, New Brunswick, NJ]) for 7 weeks. […] Stool collections were performed at baseline, after 7 weeks on HFD, and after the 10-day lovastatin/control treatments. Stool wet weights were determined. Stool and small bowel DNAs were extracted at euthanasia and the absolute abundance of M. smithii was determined by qPCR as described previously."}, "[2]": {"system": "Methanobrevibacter smithii", "details": "rats on HFD, gavaged 10 days with 1.5 mg/ml, compared to controls (water)", "experimental": "as §1"}}, "note": "Entries after “also recorded” stand apart in the source; their conditions may differ.", "data": [{"smiles": "CC[C@H](C)C(=O)O[C@H]1C[C@@H](C)C=C2C=C[C@H](C)[C@H](CC[C@@H](O)C[C@@H](O)CC(=O)O)[C@H]21", "note": "[lovastatin hydroxyacid]", "values": [{"measurement": "stool consistency (stool wet weight)", "setting": "[1]", "value": "normalization"}]}, {"smiles": "CC[C@H](C)C(=O)O[C@H]1C[C@@H](C)C=C2C=C[C@H](C)[C@H](CC[C@@H]3C[C@@H](O)CC(=O)O3)[C@H]21", "note": "[lovastatin lactone]", "values": [{"measurement": "M. smithii absolute load in the small bowel", "setting": "[2]", "value": "decreased; also recorded: reduction"}, {"measurement": "stool consistency (stool wet weight)", "setting": "[1]", "value": "normalization"}]}]}
